Assay results taken from patent EP1287854B1 (Cancer Research Technology Limited, priority 2001, dated 2003).
“And” between values parts separate entries of the source, which are not always exact repeats. Identical values can stand only once. Marks after values point to notes of the source that are not given here.

Assays:
[1] = tested on: Murine mammary carcinoma MDAH-Mca-4 tumours; assay: Tumour growth delay and cures, MDAH-Mca-4 tumours grown i.m. in mice; assay type: in vivo, female C3H/HeN mice; conditions: for activity against the MDAH-Mca-4 tumour (in words): single i.p. dose, alone or co-administered with DMXAA 80 µmol/kg
Method: (§1) Murine mammary carcinoma MDAH-Mca-4 tumours were grown in female C3H/HeN mice from stocks stored in liquid nitrogen at the sixth transplant generation, and were passaged and used for experiments at the eighth transplant generation. Tumours for experiments were grown by inoculating 20 µl of cell suspension ([…] packed cells) intramuscularly in the right gastrocenmius muscle. Animals were randomised to treatment groups, and treated with drugs when the diameter of the tumour-bearing leg reached 10-11 mm (ca. 0.6 g tumour), approximately 18 days after inoculation. […] Both compounds were administered essentially at the same time (within 1 min). Host toxicity was assessed by determination of lethality, and by measurement of body weight 4-5 days after drug treatment. The diameter of the tumour-bearing leg was measured three times weekly until values exceeded 13 mm (ca 1.4 g tumour) at which time the animals were terminated. The growth curve for each individual tumour was plotted as in Figure 1, and the time-to-endpoint (TTE, time from treatment to endpoint) was determined for each mouse. The median and mean TTE was determined for each treatment group. The mean tumour growth delay for each group was calculated as the difference between mean TTE for treated and control groups. The statistical significance of the antitumour effects was tested using ANOVA followed by Dunnett's test to determine p values for the significance of differences between individual groups.
Animals and Tumours: Murine mammary carcinoma MDAH-Mca-4 tumours were grown from stocks stored in liquid nitrogen at the sixth transplant generation. Tumours (eighth transplant generation when used) were grown from 20 µl of cell suspension (7 mg packed cells), inoculated i.m. in the right gastrocnemius muscle of female C3H/HeN mice (22-25 g at the time of treatment). Mice were randomised to treatment which commenced when the tumour + leg diameter reached 10-11 mm (0.5-0.7 g tumour).
(§2) Toxicity was assessed as lethality, and body weight loss measured four days after treatment. Any animals becoming moribund were terminated and treated as drug-related deaths in the analysis. The diameter of the tumour-bearing leg was measured 3 times per week after treatment. Antitumour activity was assessed from the tumour growth delay, defined as the difference in time to reach the endpoint of 13 mm (1.5 g tumour) for treated and control groups. Responses were classed as cures if animals were free of evident tumour 120 days after treatment. The statistical significance of tumour growth inhibition was tested by ANOVA using SAS for Windows, with Dunnett's test to evaluate p-values for differences between treatment groups. In experiments with substantial numbers of cures (free of tumour for > 120 days after treatment), statistical significance was tested by Kruskal-Wallis non-parametric analysis of variance using SAS for Windows, and the difference between treatment and control groups by Dunn's test using Sigmastat v2.0.

[2] = Host toxicity: lethality, body weight change, MTD in tumour-bearing mice; conditions: for lowering of the MTD for the chemotherapy drug in the combination: co-administration of DMXAA 80 µmol/kg, one dose level; for MTD: MTD (µmol/kg)
Method: as §1, §2

[3] = Pharmacokinetics in plasma and tumour of tumour-bearing mice
Method: (§3) At various times blood was collected from the retro-orbital sinus of anaesthetised mice into heparinised tubes, and the plasma separated by centrifugation. Tumours were rapidly dissected and frozen at -80°C. Groups of 2-5 mice were used for each time point.
(§4) LC-MS analysis of paclitaxel: Concentrations of paclitaxel in plasma and tumour were determined by HPLC with detection by positive mode electrospray mass spectrometry. Aliquots of plasma (50 µl) were treated with 1ml of ice-cold acetonitrile:methanol (3:1 v/v) to precipitate proteins. Following addition of 5 µl of an internal standard solution (10 mM cephalomannine), samples were centrifuged, and the resulting supernatants evaporated using a Speed-Vac solvent concentrator (Savant Instruments, NY). The residues were dissolved in 100 µl of 1:1 (v/v) methanol:mobile phase (48% acetonitrile, 52% 1mM sodium acetate buffer (pH 6.2)), and 5-40 µl analysed by LC-MS. Frozen tumours were minced, then homogenised in 2 vol distilled water using a Polytron homogeniser. Ice-cold acetonitrile (1 ml), and 10 µl of internal standard (20 µM cephalomannine) was added to 200 µl of tumour homogenate. The samples were centrifuged and the supernatants dried as above. The residues were dissolved in 200 µl of 1:1 (v/v) methanol:mobile phase, and 5 µl analysed by LC-MS.
(§5) The LC-MS system was an Agilent HP1100/MSD (Hewlett Packard Waldbronn, Germany) with a 3.2 mm x 150 mm C8 5 µm column (Alltima Associates Inc., Deerfield, IL) and a flow rate of 0.7 ml/min. The mass detector used N2 as the nebulizing and drying gas (flow rate 10 L/min, 350°C; neubulizer pressure 25 psi, capillary voltage 2500 V, fragmentor voltage 120 V). Paclitaxel (MW 854) and cephalomannine internal standard (MW 832) were detected, using single ion monitoring, as sodium adducts at m/z of 876 and 854, respectively. Spiking of control material indicated assay linearity from 0.3-30 µM for both plasma and tumour (r^2 = 0.999). The intra- and inter- assay precision and accuracy gave coefficients of variation ≤ 5%, and recoveries in the range 92-102%. The lower limit of detection of paclitaxel in plasma and tumour (signal:noise ratio of 3) was 0.3 µM.
(§6) Aliquots of plasma (50 µl) were treated with 1 ml of ice-cold acetonitrile:methanol (3:1 v/v), centrifuged, and the resulting supernatants evaporated as above. The residues were dissolved in 200 µl of 10 mM ammonium acetate buffer (pH 5) and 25 µl was analysed by HPLC using a HP1100 system with diode array detector (278 nm) and fluorescence detector. The column and flow rate were as for paclitaxel above, with a mobile phase of 16% acetonitrile (v/v) in 10 mM ammonium acetate buffer (pH 5). […] The intra- and inter- assay precision and accuracy gave coefficients of variation <7%, and an average recovery of 70%. The lower sensitivity limit of detection by fluorescence (signal:noise ration of 3) was 0.1 µM.
(§7) Pharmacokinetic Modelling: Modelling of pharmacokinetic data was done using ModelMaker version 4.0 (Cherwell Scientific Limited, The Magdalen Centre, Oxford Science Park, Oxford OX4 4GA, United Kingdom). The following pharmacokinetic parameters were used: Kabs, the first-order rate constant for absorption into the central compartment; Cl, total body clearance; Clinter, intercompartmental clearance; Vd, apparent volume of distribution of the central compartment; Vd2, apparent volume of distribution of the second compartment; Km, Michaelis-Menten constant; Vmax, theoretical maximum rate; AUC, area under the concentration-time curve. For all compounds it was assumed that all of the administered dose would reach the central compartment (i.e. 100% bioavailability). Differences between treatment groups were tested using a F-test comparing the entire curves and if this difference was significant (i.e. p≤0.05) the estimates of each individual model parameter for both groups were tested using a 2-tailed t-test.

MDAH-Mca-4 tumour = assay: Tumour blood flow inhibition, Hoechst 33342 perfusion marker; assay type: in vivo, mice; conditions: DMXAA at 80 µmol/kg (Fig 6A)
Method: Tumour blood flow inhibition: Tumour blood flow was assessed using the fluorescent perfusion marker Hoechst 33342 (8mg/ml in saline), which was administered i.v. at various times after drug treatment. Mice were scarified 2 min later, and frozen sections (14 µm) prepared from the distal, central and proximal regions of each tumour. Sections were examined with a Nikon epifluorescence microscope at 10x magnification using a UV-1A filter block (excitation 365 nm, barrier filter 400 nm, and dichroic mirror 400 nm). A grid with 81 squares (100 x 100 µm), was used for point scoring of staining. The whole area of each section was scored to avoid bias between peripheral and central regions (which were less well perfused). Normal tissue was excluded but necrotic areas were included. Differences between groups were treated for significance using the Student's t-test (Sigma Stat, version-2.0; Jandel Scientific Limited).

in vivo = conditions: female, C3H/HeN, mouse; for AUC: intraperitoneal
Method: as §3, §4, §5, §6, §7

[4] = DMXAA 80 µmol/kg alone, i.p. once (Table 1)
[5] = chemotherapy drug alone, linear regression of growth delay on dose
[6] = chemotherapy drug co-administered with DMXAA 80 µmol/kg, linear regression
[7] = chemotherapy drug alone at its MTD, i.p.
[8] = chemotherapy drug at MTD of combination, co-administered with DMXAA 80 µmol/kg
[9] = female, C3H/HeN, mouse, in vivo, ip, chemotherapy drug alone (no DMXAA)
[10] = female, C3H/HeN, mouse, in vivo, ip, chemotherapy drug co-administered with DMXAA 80 µmol/kg
[11] = paclitaxel 31.6 µmol/kg alone, i.p. once
[12] = paclitaxel 31.6 µmol/kg alone, i.p. once, 7 mice treated

For `Cc1ccc2c(=O)c3cccc(CC(=O)O)c3oc2c1C` [DMXAA, 5,6-dimethylxanthenone-4-acetic acid], the “Growth delay (days) Median” value ([1]; DMXAA 80 µmol/kg alone (Table 3, interim analysis)) was 10.5 days, the “Growth delay (days) Mean” value [1, 4] was 8.3 days and the “Number of mice Cures” value ([1]; DMXAA 80 µmol/kg alone, i.p. once, 7 mice treated (Table 1)) was 0. The “mean tumour growth delays (range over experiments)” value ([1]; DMXAA alone at 80 µmol/kg) was 3.5 to 8.3 days, the “tumour growth delay, overall mean” value ([1]; DMXAA alone at 80 µmol/kg, all experiments) was 6.6 ± 0.6 days and the “% Body weight change (d4-5) Mean” value ([2]; DMXAA 80 µmol/kg alone (Table 3)) was -4.8%. The “% Body weight change (d4-5) Mean” value [2, 4] was -4.1%, the “effect of co-administration on DMXAA plasma pharmacokinetic parameters” value ([3]; DMXAA 80 µmol/kg with paclitaxel at 23.7 µmol/kg) was “unaffected” and the “Vmax (µM hr^-1)” value ([3]; Plasma, DMXAA 80 µmol/kg i.p., parentheses % CV) was 63 (6.1) µM hr^-1. The “inhibition of tumour blood flow (H33342 perfusion), time course” value (MDAH-Mca-4 tumour) was “prompt and irreversible blood flow shutdown, with no recovery by 24 hr”, the AUC (in vivo; plasma, 80 umol/kg) was 3630 µM·h and the Km (in vivo; plasma, ip, 80 µmol/kg) was 220 µM.

In the case of `CC(=O)O[C@@]12CO[C@@H]1C[C@H](O)[C@@]1(C)C(=O)[C@H](O)C3=C(C)[C@@H](OC(=O)[C@H](O)[C@@H](NC(=O)OC(C)(C)C)c4ccccc4)C[C@@](O)([C@@H](OC(=O)c4ccccc4)[C@H]21)C3(C)C` [docetaxel, (2R,3S)-N-carboxy-3-phenylisoserine, N tert-butyl ester, 13-ester with 5b-20-epoxy-1,2a,4,7b,10b,13a-hexahydroxytax-11-en-9-one 4-acetate 2-benzoate trihydrate], the “Growth delay (days) Median” value ([1]; Docetaxel 17.8 µmol/kg alone, interim analysis) is reported as -1.7 days, the “Growth delay (days) Median” value ([1]; Docetaxel 23.7 µmol/kg alone, interim analysis) is reported as 0.8 days and the “Slope of dose/response” value [1, 5] is reported as -0.02 ± 0.14 days/µmol/kg. For the same molecule, the “Slope of dose/response” value [1, 6] was 1.37 ± 0.22 days/µmol/kg, the DMF ([1]; gradient with DMXAA/gradient without DMXAA, estimated using upper error estimate of the slope for the chemotherapy drug only, trihydrate) was “significantly greater than unity” and the DMF ([1]; im) was >9^c. The “activity against the MDAH-Mca-4 tumour (in words)” value (“activity … (in words)” for short) ([1]; listed as Docetaxel, trihydrate) was “essentially inactive”, the “activity … (in words)” value ([1]; trihydrate) was “essentially devoid of activity” and the “% Body weight change (d4-5) Mean” value ([2]; Docetaxel 17.8 µmol/kg alone) was -1.8%. The “Number of mice Deaths” value ([2]; Docetaxel 17.8 µmol/kg alone, 2 mice treated, interim analysis) was 0, the “% Body weight change (d4-5) Mean” value ([2]; Docetaxel 23.7 µmol/kg alone) was -4.1% and the “Number of mice Deaths” value ([2]; Docetaxel 23.7 µmol/kg alone, 5 mice treated, interim analysis) was 0. The “% body weight change at 4 days” value [2, 7] was -4.1 ± 1.3%, the “% body weight change at 4 days” value [2, 8] was -7.2 ± 1.2% and the “lowering of the MTD for the chemotherapy drug in the combination” value [2] was 1.33 fold. For the same molecule, the MTD [2, 9] was 23.7 µmol/kg and the MTD [2, 10] was 17.8 µmol/kg.

In the case of `CC(=O)O[C@H]1C(=O)[C@@]2(C)[C@H]([C@H](OC(=O)c3ccccc3)[C@]3(O)C[C@H](OC(=O)[C@H](O)[C@@H](NC(=O)c4ccccc4)c4ccccc4)C(C)=C1C3(C)C)[C@]1(OC(C)=O)CO[C@@H]1C[C@@H]2O` [paclitaxel, 5β, 20-Epoxy-1,2a,4,7β,10β,13a-hexahydroxytax-11-en-9-one 4,10-diacetate 2-benzoate 13-ester with (2R, 3 S)-N-benzoyl-3-phenylisoserine], the antitumour activity ([1]; DMXAA dose-response experiment (Fig 5), paclitaxel alone at 23.7 µmol/kg) is reported as “no significant activity”, the “Slope of dose/response” value [1, 5] is reported as 0.08 ± 0.06 days/µmol/kg and the “Slope of dose/response” value [1, 6] is reported as 1.83 ± 0.4 days/µmol/kg. The DMF ([1]; gradient with DMXAA/gradient without DMXAA, estimated using upper error estimate of the slope for the chemotherapy drug only) was “significantly greater than unity”, the DMF ([1]; gradient with DMXAA/gradient without DMXAA, estimated using upper error estimate of the slope for the chemotherapy drug only, listed as Paclitaxel) was >13^c and the “Growth delay (days) Mean” value [1, 11] was 0.1 days. For the same molecule, the “Number of mice Cures” value [1, 12] was 0, the “Growth delay (days) Mean” value ([1]; paclitaxel 42.1 µmol/kg alone, i.p. once) was 4 days and 4.3 days and the “Number of mice Cures” value ([1]; paclitaxel 42.1 µmol/kg alone, i.p. once, 7 mice treated) was 0. For the same molecule, the “activity … (in words)” value [1] was “essentially inactive”, the “% body weight change at 4 days” value [2, 7] was 0.3 ± 1.1% and the “% body weight change at 4 days” value [2, 8] was -3.9 ± 1.2%. The “lowering of the MTD for the chemotherapy drug in the combination” value [2] was 1.33 fold, the “Number of mice Deaths” value ([2]; female, C3H/HeN, mouse, in vivo, ip, 42.1 µmol/kg) was 0 and the MTD [2, 9] was 42.1 µmol/kg. For the same molecule, the MTD [2, 10] was 31.6 µmol/kg, the “% Body weight change (d4-5) Mean” value ([2]; mouse, in vivo, ip) was 0.3% and the “% Body weight change (d4-5) Mean” value [2, 11] was 1.9%. For the same molecule, the “Number of mice Deaths” value [2, 12] was 0, the AUC (in vivo; plasma, 23.7 umol/kg) was 18.8 µM·h and the AUC (in vivo; tumour, 23.7 umol/kg) was 32.8 µM·h.
